Assays:
[1] = Excretion (0-168h) of radioactivity in urine following intravenous administration of [14C] aliskiren hemifumarate at 1 mg.Kg-1 level in marmoset; assay type: ADME, organism-based, Callithrix jacchus; conditions: in vivo
Cytochrome P450 4A11 = target: T1, Cytochrome P450 4A11 (Homo sapiens, UniProt Q02928); experiment: Metabolic clearance (ul.min.nmol-1 CYP) of aliskiren hemifumarate for CYP4A11 was determined in human liver microsome incubated with [14C]SPP100 hemifumarate; assay type: ADME; conditions: microsomes
T1 sequence (Q02928 whole entry): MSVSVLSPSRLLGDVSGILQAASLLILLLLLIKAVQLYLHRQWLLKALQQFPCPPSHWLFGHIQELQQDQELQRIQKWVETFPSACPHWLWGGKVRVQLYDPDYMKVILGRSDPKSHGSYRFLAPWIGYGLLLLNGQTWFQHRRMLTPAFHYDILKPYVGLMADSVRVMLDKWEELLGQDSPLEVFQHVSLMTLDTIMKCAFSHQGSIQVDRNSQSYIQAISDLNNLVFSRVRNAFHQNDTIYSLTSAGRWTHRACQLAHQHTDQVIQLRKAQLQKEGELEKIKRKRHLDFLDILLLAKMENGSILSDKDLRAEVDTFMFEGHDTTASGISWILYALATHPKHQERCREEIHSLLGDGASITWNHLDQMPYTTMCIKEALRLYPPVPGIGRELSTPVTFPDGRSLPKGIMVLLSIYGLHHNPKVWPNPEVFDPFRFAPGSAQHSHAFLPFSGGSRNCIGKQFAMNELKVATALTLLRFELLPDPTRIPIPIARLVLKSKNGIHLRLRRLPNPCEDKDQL

[2] = Excretion of radioactivity (24-48h) in faeces following single intravenous dose of 10 mg.Kg-1 [14C] aliskiren hemifumarate in rat; assay type: ADME, organism-based, Albino HAN:WIST, Feces; conditions: in vivo
[3] = Concentration of radioactivity in the kidney medulla following repeated oral administration of [14C] aliskiren hemifumarate at 100 mg.Kg-1 level studied at 24h after 10th dose in rat; assay type: ADME, organism-based, Albino HAN:WIST, Renal medulla; conditions: in vivo
[4] = Concentration of radioactivity in the brown fat following repeated oral administration of [14C] aliskiren hemifumarate at 100 mg.Kg-1 level studied at 24h after 10th dose in rat; assay type: ADME, organism-based, Albino HAN:WIST, Brown adipose tissue; conditions: in vivo
[5] = Cmax normalised (0-168h) of total radioactivity following single intravenous administration of [14C] aliskiren hemifumarate at 1 mg.Kg-1 level in marmoset; assay type: ADME, organism-based, Callithrix jacchus, Plasma; conditions: in vivo
[6] = AUC of [14C] aliskiren hemifumarate following single intravenous dose of [14C] aliskiren hemifumarate at 10 mg.Kg-1 level in mouse; assay type: ADME, organism-based, TgRasH2, Plasma; conditions: in vivo
[7] = Concentration of radioactivity in the kidney medulla following repeated oral administration of [14C] aliskiren hemifumarate at 100 mg.Kg-1 level studied at 2h after 10th dose in rat; assay type: ADME, organism-based, Albino HAN:WIST, Renal medulla; conditions: in vivo
[8] = Excretion of radioactivity (24-48h) in urine following single intravenous dose of 10 mg.Kg-1 [14C] aliskiren hemifumarate in rat; assay type: ADME, organism-based, Albino HAN:WIST; conditions: in vivo
[9] = % of radioactivity (48h) recovered in bile of receiver rat following duodenal infusion of radioactivity through bile from donor rat treated with single intravenous administration of 10 mg.Kg-1 [14C] aliskiren hemifumarate; assay type: ADME, organism-based, HAN:WIST(SPF); conditions: in vivo
[10] = Concentration of radioactivity in the liver following repeated oral administration of [14C] aliskiren hemifumarate at 100 mg.Kg-1 level studied at 24h after 3rd dose in rat; assay type: ADME, organism-based, Albino HAN:WIST; conditions: in vivo
[11] = Excretion of radioactivity (0-24h) in faeces following single oral dose of 500 mg.Kg-1 [14C] aliskiren hemifumarate in mouse; assay type: ADME, organism-based, TgRasH2, Feces; conditions: in vivo
[12] = t1/2 of aliskiren hemifumarate following 2 week oral dosing of aliskiren hemifumarate at 100 mg.Kg-1 level studied on day 14 in male Callithrix jacchus; assay type: ADME, organism-based; conditions: marmoset, plasma
[13] = Effect of 2 week oral dosing of aliskiren hemifumarate at 100 mg.Kg-1 level on hematological parameter values in female Callithrix jacchus; assay type: toxicity, organism-based, Plasma; conditions: marmoset, in vivo, 336 h
[14] = AUC of aliskiren hemifumarate following 8 day once-daily dosing of SPP100B oral solution at 40 mg level studied on day 8 in men; assay type: ADME, organism-based; conditions: male, human, plasma
[15] = Cmin of aliskiren hemifumarate following repeated oral administration of [14C] aliskiren hemifumarate at 100 mg.Kg-1 level studied at steady state during a dosing interval in rat; assay type: ADME, organism-based, Albino HAN:WIST; conditions: in vivo
[16] = AUC (0-24h) of aliskiren hemifumarate following 4 week oral dietary dosing of aliskiren hemifumarate at 1000 mg.Kg-1 level in female mouse; assay type: ADME, organism-based; conditions: CB6F1-TGrasH2, mouse, plasma
[17] = t1/2 of aliskiren hemifumarate following 2 week oral dosing of aliskiren hemifumarate at 50 mg.Kg-1 level studied on day 14 in female Callithrix jacchus; assay type: ADME, organism-based; conditions: marmoset, plasma
[18] = AUC(0-24h) of aliskiren hemifumarate following 2 week oral dosing of aliskiren hemifumarate at 50 mg.Kg-1 level studied on day 14 in female Callithrix jacchus; assay type: ADME, organism-based; conditions: marmoset, plasma
[19] = Effect of 2 week oral dosing of aliskiren hemifumarate at 100 mg.Kg-1 level on plasma creatinine level in female Callithrix jacchus; assay type: toxicity, organism-based; conditions: marmoset, 336 h
[20] = Effect of 2 week oral dosing of aliskiren hemifumarate at 50 mg.Kg-1 level on plasma creatinine level in male Callithrix jacchus; assay type: toxicity, organism-based; conditions: marmoset, 336 h
[21] = Cmax of aliskiren hemifumarate following 2 week oral dosing of aliskiren hemifumarate at 10 mg.Kg-1 level studied on day 1 in female Callithrix jacchus; assay type: ADME, organism-based; conditions: marmoset, plasma
[22] = AUC of unlabeled aliskiren hemifumarate following single oral dose of aliskiren hemifumarate at 500 mg.Kg-1 level in mouse; assay type: ADME, organism-based; conditions: TgRasH2, mouse, plasma
[23] = AUCspec of aliskiren hemifumarate following 2 week oral dosing of aliskiren hemifumarate at 50 mg.Kg-1 level studied on day 1 in female Callithrix jacchus; assay type: ADME, organism-based, Plasma; conditions: marmoset, in vivo, 336 h
[24] = Tmax (0-96h) of unlabeled aliskiren hemifumarate following oral administration of aliskiren hemifumarate at 100 mg.Kg-1 level in rat; assay type: ADME, organism-based; conditions: Albino HAN:WIST, plasma
[25] = AUC (0-24h)/dose of aliskiren hemifumarate following 4 week oral dietary dosing of aliskiren hemifumarate at 1500 mg.Kg-1 level in male mouse; assay type: ADME, organism-based, CB6F1-TGrasH2, Plasma; conditions: in vivo
[26] = Tmax of aliskiren hemifumarate following single dosing of SPP100B oral solution at 160 mg level studied on day 1 in men; assay type: ADME, organism-based; conditions: male, human, plasma
[27] = AUC of aliskiren hemifumarate following 8 day once-daily dosing of SPP100B oral solution at 80 mg level studied on day 8 in men; assay type: ADME, organism-based; conditions: male, human, plasma
[28] = AUC(0-24h) of aliskiren hemifumarate following 2 week oral dosing of aliskiren hemifumarate at 10 mg.Kg-1 level studied on day 1 in male Callithrix jacchus; assay type: ADME, organism-based; conditions: marmoset, plasma
[29] = AUC (0-24h) of aliskiren hemifumarate following 4 week oral dietary dosing of aliskiren hemifumarate at 500 mg.Kg-1 level in female mouse; assay type: ADME, organism-based; conditions: CB6F1-TGrasH2, mouse, plasma
[30] = Bioavailability of aliskiren in receiver rat following duodenal infusion of radioactivity through bile from donor rat treated with single intravenous administration of 10 mg.Kg-1 [14C] aliskiren hemifumarate; assay type: ADME, organism-based, HAN:WIST(SPF); conditions: in vivo
CYP2C9 = CYP2C9 (Homo sapiens, UniProt P11712); experiment: Inhibitory activity of 200 uM SPP100 on 220 Pmoles of cDNA-derived CYP2C9 enzyme in microsome prepared from human lymphoblastoid cell line; assay type: ADME, microsomes; parameters: conc 200 uM, interact cpd conc 6 uM; conditions: probe diclofenac
Sequence of CYP2C9 (P11712 whole entry): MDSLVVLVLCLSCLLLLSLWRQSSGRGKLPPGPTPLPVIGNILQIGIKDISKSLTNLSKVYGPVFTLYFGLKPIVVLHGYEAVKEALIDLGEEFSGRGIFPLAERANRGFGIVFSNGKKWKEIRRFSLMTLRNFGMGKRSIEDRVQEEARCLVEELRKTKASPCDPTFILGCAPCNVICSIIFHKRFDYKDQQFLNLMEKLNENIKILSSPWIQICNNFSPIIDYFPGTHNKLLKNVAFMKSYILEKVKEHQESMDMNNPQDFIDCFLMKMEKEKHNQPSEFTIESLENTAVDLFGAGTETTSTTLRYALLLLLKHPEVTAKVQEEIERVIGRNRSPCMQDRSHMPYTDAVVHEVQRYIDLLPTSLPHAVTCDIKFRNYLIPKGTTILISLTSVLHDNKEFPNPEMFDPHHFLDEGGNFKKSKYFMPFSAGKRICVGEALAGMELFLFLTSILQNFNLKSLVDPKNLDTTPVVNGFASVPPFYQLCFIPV

[31] = % SPP100 (0-72h) recovered in faeces following single oral dose of [14C] aliskiren hemifumarate at 3 mg.Kg-1 level in marmoset; assay type: ADME, organism-based, Callithrix jacchus, Feces; conditions: in vivo

With `COCCCOc1cc(C[C@@H](C[C@H](N)[C@@H](O)C[C@H](C(=O)NCC([14CH3])([14CH3])C(N)=O)C(C)C)C(C)C)ccc1OC.O=C(O)/C=C/C(=O)O` the Radiolabel recovery [1] was 4.04%, the CL (Cytochrome P450 4A11) was 4.9 µL·min/nmol and the Radiolabel recovery [2] was 28.2%. The Radiolabel recovery [3] was “OUTCOME = Detected”, the Radiolabel recovery [4] was “OUTCOME = Detected” and the Cmax normalised [5] was 11.42 (umol/L)/(mg/kg). For the same compound, the AUC [6] was 5.01 µM·h, the Radiolabel recovery [7] was “OUTCOME = Detected” and the Radiolabel recovery [8] was 40%. The Radiolabel recovery [9] was 2.2%, the Radiolabel recovery [10] was “OUTCOME = Detected” and the Radiolabel recovery [11] was “OUTCOME = Observed/Most of the radioactivity administered was excreted during first 24h after administration and the main route of excretion was the faecal pathway”.

For `COCCCOc1cc(C[C@@H](C[C@H](N)[C@@H](O)C[C@H](C(=O)NCC(C)(C)C(N)=O)C(C)C)C(C)C)ccc1OC.COCCCOc1cc(C[C@@H](C[C@H](N)[C@@H](O)C[C@H](C(=O)NCC(C)(C)C(N)=O)C(C)C)C(C)C)ccc1OC.O=C(O)/C=C/C(=O)O` [ALISKIREN FUMARATE], the half-life [12] was 7.8 h, the Change in hematology [13] was “OUTCOME = Hematological parameter values did not differ from control values. No animals died during the study” and the AUC at 192 h [14] was 46.7 ng·h/mL. For the same compound, the “Cmin(ss)” value [15] was 4.54 nM, the AUC(0-t) at 24 h [16] was 2280 ng·h/mL and the half-life [17] was 8.19 h. The AUC at 24 h [18] was 109000 ng·h/mL, the CREAT_CHANGE_BY [19] was 130% and the CREAT_CHANGE_BY [20] was 130%. The Cmax [21] was 3960 ng/mL, the AUC [22] was 7.04 µM·h and the AUC normalised [23] was 1.12 ((ug.h.ml-1)/(mg/kg). The Tmax [24] was 0.25 h, the AUC normalised [25] was 2.76 ((ng/mL).hours)/(mg/kg/day) and the Tmax [26] was 2.7 h. The AUC at 192 h [27] was 137 ng·h/mL, the AUC(0-t) at 24 h [28] was 22000 ng·h/mL and the AUC(0-t) at 24 h [29] was 857 ng·h/mL.

With `COCCCOc1cc(C[C@@H](C[C@H](N)[C@@H](O)C[C@H](C(=O)NCC(C)(C)C(N)=O)C(C)C)C(C)C)ccc1OC` the F [30] was < 3%, the inhibition at 200 µM (CYP2C9) was 15.8% and the Compound recovery [31] was 78%.
